From ChEMBL document CHEMBL1149958, “Conformationally restricted piperidinyl benzamides as 5-HT3 receptor antagonists” (Bioorg Med Chem Lett, 1992)

What was measured:
[1] = pKA value was determined; format: physicochemical
[2] = system: Rattus norvegicus; assay: Antagonist potency towards serotonin 5-HT3 receptor was determined by inhibition of 5-HT induced bradycardia (Bezold-Jarisch reflex) in anaesthetized rat; format: functional; conditions: for ED50: Rattus norvegicus, read-out: ID50 (the source's name)

Row | Structure (SMILES) | pKa [1] | ED50 [2] | ID50 [2]
1 | COc1cc(N)c(Cl)cc1C(=O)NC1CCN2CCOCC2C1 (stereo unspecified) | 6.3 | 0.017 mg/kg | 
2 | COc1cc(N)c(Cl)cc1C(=O)NC1CCN2C(C)CCC2C1 (stereo unspecified) |  | 0.012 mg/kg | 
3 | COc1cc(N)c(Cl)cc1C(=O)NC1CCN2CCCC2C1 (stereo in doubt; 4b) |  |  | 24 µg/kg
4 | COc1cc(N)c(Cl)cc1C(=O)NC1CCN2CCCC2C1 (stereo in doubt; 4a) |  |  | >1000 µg/kg
5 | COc1cc(N)c(Cl)cc1C(=O)NC1CCN2C(C)CCCC2C1 (stereo unspecified) [BRL-20627] | 9.2 | 0.225 mg/kg | 
6 | COc1cc(N)c(Cl)cc1C(=O)NC1CCN2C(C)COCC2C1 (stereo unspecified) |  | 0.0095 mg/kg | 
7 | CN1[C@@H]2CC[C@H]1C[C@@H](OC(=O)c1c[nH]c3ccccc13)C2 [TROPISETRON] |  | 0.0014 mg/kg | 
8 | CCN(CC)CCNC(=O)c1cc(Cl)c(N)cc1OC [METOCLOPRAMIDE] |  | 0.5 mg/kg | 
9 | COc1cc(N)c(Cl)cc1C(=O)NC1CC(C)N2CCCC2C1 (stereo unspecified) |  | 0.29 mg/kg | 
